The assay concerns Mv1Lu mink lung epithelial cells. The assay is described as follows: 384 well anti-BrdU cytoblot. The class given is cell-based. Conditions: 384-well plate; TGF-β 16 hours, then 10 μM BrdU 16 hours. The source says:
FIG. 1. An immunodetection assay for DNA synthesis in high density arrays of mammalian cells. (a) Cartoon depiction of an anti-BrdU cytoblot. The thymine analog 5-bromodeoxyuridine (BrdU) is incorporated into the DNA of cells that are actively replicating their DNA. The cells are in the well, and BrdU is detected with a two step antibody binding procedure. The second antibody is conjugated to the enzyme horseradish peroxidase. In the presence of the chemiluminescent substrate luminol as well as hydrogen peroxide, light of wavelength 428 nm is generated. The light emission can be detected by exposing the plate to film. (b) A cytoblot can detect TGF-β's ability to prevent BrdU incorporation in mink lung epithelial cells. 2000 Mv1Lu mink lung epithelial cells were seeded in each well of a white, opaque 384 well plate. The cells were seeded in the indicated concentrations of TGF-β in 50 μL of DMEM with 1% fetal bovine serum (FBS), 100 units/mL penicillin G sodium, 100 μg/mL streptomycin sulfate and 100 μM each of the amino acids alanine, aspartic acid, glutamine, glycine, asparagine and proline (referred to throughout as 1% mink medium) and allowed to incubate at 37° C. with 5% CO2. After 16 hours, 5.5 μL of 100 μM BrdU in 1% mink medium was added to each well, for a final concentration of 10 μM BrdU. The cells were incubated at 37° C. with 5% CO2 for an additional 16 hours and then an anti-BrdU cytoblot protocol was performed (see protocol). Wells shown are magnified 4×.
FIG. 2. A cytoblot can detect the ability of numerous antiproliferative agents to inhibit BrdU incorporation. 2000 Mv1Lu mink lung epithelial cells were seeded in each well of a white, opaque 384 well plate. The cells were seeded in 40 μL of 1% mink media and immediately 40 μL of 2× stocks of the reagents shown was added to each well and the cells were allowed to incubate at 37° C. with 5% CO2. After 24 hours, 9 μL of 100 μM BrdU in 1% mink medium was added to each well, for a final concentration of 10 μM BrdU. The cells were incubated at 37° C. with 5% CO2 for an additional 16 hours and then an anti-BrdU cytoblot protocol was performed (see protocol). Wells shown are magnified 2.5×.
The ability of the cytoblot assay to detect changes in DNA synthesis was tested by measuring the incorporation of 5-bromodeoxyuridine (BrdU, Sigma Corporation, St. Louis, Mo., Cat.# B9285) into DNA in the presence or absence of the anti-mitogen transforming growth factor β (TGF-β). Mink lung cells, which are responsive to TGF-β, were seeded into each well of an opaque, white 384-well plate. The cells were subsequently treated with varying concentrations of TGF-β for 16 hours and then with 10 μM BrdU for 16 hours. […] The following protocols provide experimental detail. […]

For the substance “TGF-β: anti-mitogen transforming growth factor β, multifunctional polypeptide signaling factor”, the BrdU incorporation entry is listed as “effectively prevented BrdU incorporation”.

Values taken from patent US20080311589A1, “METHOD OF HIGH-THROUGHPUT SCREENING OF MOLECULES AND COMPOUNDS FOR THEIR EFFECTS ON BIOLOGICAL AND CHEMICAL PROCESSES” (priority 1999, published 2008).
